Drawing on patent US7576094B2, “Spiro derivatives as lipoxygenase inhibitors” (Eli Lilly and Company, priority 2004, dated 2009), this text covers IC50 and EC50 for eleven compounds.

Some results are limits rather than exact numbers.

Assay [1] has as its target T1, human recombinant 5-Lipoxygenase (Homo sapiens, UniProt P09917).
T1 sequence (P09917 1-674): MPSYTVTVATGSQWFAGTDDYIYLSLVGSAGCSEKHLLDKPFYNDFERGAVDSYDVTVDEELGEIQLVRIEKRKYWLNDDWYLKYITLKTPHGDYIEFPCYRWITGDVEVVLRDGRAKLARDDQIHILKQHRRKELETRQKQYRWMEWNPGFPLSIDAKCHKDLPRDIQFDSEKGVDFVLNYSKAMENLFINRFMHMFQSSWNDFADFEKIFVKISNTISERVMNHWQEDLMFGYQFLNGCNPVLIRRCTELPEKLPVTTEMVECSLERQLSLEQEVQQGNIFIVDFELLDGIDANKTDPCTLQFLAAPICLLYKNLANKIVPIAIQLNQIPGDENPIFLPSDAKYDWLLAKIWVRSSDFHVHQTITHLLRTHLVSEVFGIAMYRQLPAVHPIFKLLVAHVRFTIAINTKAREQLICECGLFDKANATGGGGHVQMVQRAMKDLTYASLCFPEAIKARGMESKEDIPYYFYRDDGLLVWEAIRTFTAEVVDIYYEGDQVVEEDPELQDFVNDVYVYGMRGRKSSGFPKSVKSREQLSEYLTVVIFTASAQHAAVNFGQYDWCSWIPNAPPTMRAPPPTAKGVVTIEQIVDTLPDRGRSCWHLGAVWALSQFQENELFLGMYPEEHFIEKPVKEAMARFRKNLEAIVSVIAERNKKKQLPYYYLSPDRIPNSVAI
The assay can be described thus: 5-Lipoxygenase Enzyme Assay. Type of assay: biochemical. The note with it: 70 μM arachidonic acid, 10 minute incubation at room temperature, FOX reagent, absorbance at 620 nm; read-out: inhibition of 5-Lipoxygenase with an IC50. The essentials:
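Recombinant human 5-LOX in 50 mM Tris-HCl pH 7.4 was preincubated with compound, then 70 μM arachidonic acid was added for 10 min at room temperature. Hydroperoxide was read by FOX reagent (ferric xylenol orange, 1 h complex formation) as absorbance at 620 nm. Five concentrations in triplicate were tested, starting at 10 μM.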

Assay [2] concerns the target T2, porcine leukocyte 12/15-Lipoxygenase (Sus scrofa, UniProt P16469).
T2 sequence (P16469 1-663): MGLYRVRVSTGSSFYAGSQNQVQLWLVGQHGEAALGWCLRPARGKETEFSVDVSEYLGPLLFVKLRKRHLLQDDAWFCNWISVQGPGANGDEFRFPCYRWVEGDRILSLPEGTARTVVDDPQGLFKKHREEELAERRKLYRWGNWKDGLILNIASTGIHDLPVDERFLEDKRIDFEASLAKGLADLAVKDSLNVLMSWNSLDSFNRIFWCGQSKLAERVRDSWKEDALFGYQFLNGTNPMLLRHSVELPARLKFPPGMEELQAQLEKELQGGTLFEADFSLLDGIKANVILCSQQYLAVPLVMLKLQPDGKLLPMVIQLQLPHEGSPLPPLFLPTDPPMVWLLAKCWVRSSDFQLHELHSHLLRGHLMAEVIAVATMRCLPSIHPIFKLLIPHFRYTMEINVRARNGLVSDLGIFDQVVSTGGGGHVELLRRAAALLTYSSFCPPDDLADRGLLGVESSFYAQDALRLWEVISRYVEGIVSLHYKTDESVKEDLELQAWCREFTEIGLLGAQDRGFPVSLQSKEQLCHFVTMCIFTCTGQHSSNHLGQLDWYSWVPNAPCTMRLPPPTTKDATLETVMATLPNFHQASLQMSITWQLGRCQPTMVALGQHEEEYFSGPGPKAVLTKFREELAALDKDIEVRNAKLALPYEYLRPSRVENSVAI
Nature of the assay: 12/15-Lipoxygenase Enzyme Assay. Type of assay: biochemical. The conditions noted are these: 70 μM arachidonic acid, 10 minute incubation at room temperature, FOX reagent, absorbance at 620 nm; read-out: inhibition of 12/15-Lipoxygenase with an IC50. The text has this: This procedure was used for measuring the enzymatic activity of porcine leukocyte 12/15-Lipoxygenase using a […] method based on the ferric oxidation of xylenol orange.
• 96 well flat bottom microfilter plates (VWR, Catalog # 62402-933 9295) • Lipoxygenase screening assay buffer (Cayman, Catalog # 760710) • Porcine leukocyte 12/15-Lipoxygenase (Cayman, Catalog # 60300) • Arachidonic Acid (Sigma, Catalog # A3555) • Xylenol orange tetrasodium salt (Aldrich, Catalog # 227854) • Iron (II) sulfate heptahydrate (Sigma, Catalog # F7002) • Sulfuric acid (95-98%) [18M] • Methanol Procedure
Porcine Leukocyte 12/15-Lipoxygenase (Cayman Cat # 60300) was used in this assay. Test compound and/or vehicle was added to 1.3 μL 12/15-Lipoxygenase in 50 mM Tris-HCl buffer, pH 7.4. The reaction was initiated by addition of 70 μM arachidonic acid in Tris-HCl buffer, pH 7.4, and terminated after a 10 minute incubation at room temperature by addition of FOX reagent (25 mM sulfuric acid, 100 μM xylenol orange, 100 μM iron (II) sulfate, methanol:water 9:1). The yellow color of acidified xylenol orange was converted to a blue color by the lipid hydroperoxide-mediated oxidation of Fe^2+ ions and the interaction of the resulting Fe^3+ ions with the dye. The complex was allowed to form during a 1 hour incubation at room temperature with shaking. Absorbance of the Fe^3+ complex was then measured at […] using a spectrophotometer.
Negative controls contained enzyme during the incubation step but substrate was not added until after the FOX reagent. Compounds are screened at 5 concentrations in triplicate starting at 10 μM

Assay [3] deals with release of the leukotriene LTB4 from a neutrophil cell line (MPRO cell line). The assay can be described thus: LTB4-Cell Assay. Type of assay: cell-based. The note with it: Mus musculus, 1 h, read-out: inhibition of LTB4 with an EC50. The method in brief:
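Mouse promyelocytic cells differentiated to neutrophils with 10 μM all-trans retinoic acid for 72 h, then stimulated with 1 μM A23187 plus compound for 1 h at 37° C. Supernatant LTB4 quantified by competitive EIA; 5 concentrations in quadruplicate from 10 μM top.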

Assay [4] relates to LTB4 production in human whole blood. The assay can be described thus: Inhibition of LTB4 Production in Blood. The conditions noted are these: 1 h, 20 μM A23187, 60 minutes at 37° C., LTB4 in plasma by ELISA, read-out: protection against LTB4 at an EC50. The format is cell-based. The method in brief:
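Citrated human whole blood preincubated 15 min at 37 °C with compound (top final 30 μM, 1:3 dilutions, quadruplicate), then stimulated with 20 μM A23187 for 60 min at 37 °C. Plasma LTB4 quantified by ELISA; IC50 from percent inhibition versus vehicle.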

What is called EC50 is the concentration giving half of the maximal effect.

Regarding `Cc1c(O)cc(Cl)c2c1CCC1(CCC1)O2` [8-chloro-5-methyl-3,4-dihydrospiro[chromene-2,1′-cyclobutan]-6-ol], the IC50 was less than 0.3 µM in assay [1] and less than 5 µM in assay [2]. Further, the EC50 in assay [3] was less than 5 µM.
Regarding `CCOC1CC2(CCC2)Oc2c(C)c(C)c(O)c(C)c21` (stereo not drawn) [4-ethoxy-5,7,8-trimethyl-3,4-dihydrospiro[chromene-2,1′-cyclobutan]-6-ol], the IC50 was less than 0.3 µM in assay [1] and less than 5 µM in assay [2]. In addition, the EC50 in assay [3] is less than 5 µM.
As to `Cc1c(C)c2c(c(C)c1O)C(OC1CCCC1)CC1(CCC1)O2` (stereo not drawn) [4-(cyclopentyloxy)-5,7,8-trimethyl-3,4-dihydrospiro[chromene-2,1′-cyclobutane]-6-diol], the IC50 in assay [1] is less than 0.3 µM; in assay [2], less than 5 µM. In addition, the half-maximal effective concentration (EC50) in assay [3] is less than 5 µM.
`Cc1c(C)c2c(c(C)c1O)CCC1(CCC1)O2` [5,7,8-trimethyl-3,4-dihydrospiro[chromene-2,1′-cyclobutan]-6-ol]: the IC50 was less than 0.3 µM in assay [1] and less than 5 µM in assay [2]. Further, in assay [3], the EC50 was less than 5 µM.
`Cc1c(C)c2c(c(C)c1O)CCC1(CCC1)S2` [5′,7′,8′-trimethyl-3′,4′-dihydrospiro[cyclobutane-1,2′-thiochromen]-6′-ol]: the IC50 in assay [1] is less than 0.3 µM; in assay [2] it was less than 5 µM. Also, the EC50 in assay [3] is less than 5 µM.
`Cc1c(C)c2c(c(C)c1O)C(SC(C)C)CC1(CCC1)O2` (stereo not drawn) [4-(isopropylthio)-5,7,8-trimethyl-3,4-dihydrospiro[chromene-2,1′-cyclobutan]-6-ol]: the IC50 is less than 0.3 µM in assay [1] and less than 5 µM in assay [2]. Besides, the EC50 in assay [3] is less than 5 µM.
Take `Cc1c(O)c(CCC(C)C)c(C)c2c1CCC1(CCC1)O2` [5,8-dimethyl-7-(3-methylbutyl)-3,4-dihydrospiro[chromene-2,1′-cyclobutan]-6-ol]: the IC50 in assay [1] was less than 0.3 µM; in assay [2], less than 5 µM. In addition, the EC50 in assay [3] was less than 5 µM.
As to `CO/N=C/C1=Cc2c(cc(C)c(O)c2C)OC12CCC2` [6-hydroxy-5,7-dimethylspiro[chromene-2,1′-cyclobutane]-3-carbaldehyde O-methyloxime], the IC50 in assay [2] is less than 5 µM. The EC50 in assay [4] is less than 10 µM; in assay [3] it was less than 5 µM.
On to `Cc1c(O)c(C)c2c(c1Cl)OC1(CCC1)CC2` [8-chloro-5,7-dimethyl-3,4-dihydrospiro[chromene-2,1′-cyclobutan]-6-ol], for which the results for the IC50 in assay [1] and in assay [2] were less than 0.3 µM and less than 5 µM, respectively. Moreover, in assay [3], the EC50 was less than 5 µM.
As for `Cc1c(C)c2c(c(C)c1O)C(OC(=O)Nc1ccccc1)CCS2` (stereo not drawn) [6-hydroxy-5,7,8-trimethylthiochroman-4-yl phenylcarbamate], the IC50 was less than 0.3 µM in assay [1] and less than 5 µM in assay [2]. Besides, the EC50 in assay [3] was less than 5 µM.
For `COC(=O)CSCC1Cc2c(C)c(O)c(C)c(C)c2OC12CCC2` (stereo not drawn) [methyl {[(6-hydroxy-5,7,8-trimethyl-3,4-dihydrospiro[chromene-2,1′-cyclobutan]-3-yl)methyl]thio}acetate], the IC50 is less than 0.3 µM in assay [1] and less than 5 µM in assay [2]. Besides, in assay [3], the EC50 was less than 5 µM.
